The values below come from paper PMC8789054, “The nucleotide messenger (p)ppGpp is an anti-inducer of the purine synthesis transcription regulator PurR in Bacillus” (Nucleic Acids Research, 2021).

One data set concerns the target T1, PurR Y102A/F205A (Bacillus subtilis, UniProt P37551, Y102A/F205A).
T1 sequence (P37551 1-285 Y102A/F205A): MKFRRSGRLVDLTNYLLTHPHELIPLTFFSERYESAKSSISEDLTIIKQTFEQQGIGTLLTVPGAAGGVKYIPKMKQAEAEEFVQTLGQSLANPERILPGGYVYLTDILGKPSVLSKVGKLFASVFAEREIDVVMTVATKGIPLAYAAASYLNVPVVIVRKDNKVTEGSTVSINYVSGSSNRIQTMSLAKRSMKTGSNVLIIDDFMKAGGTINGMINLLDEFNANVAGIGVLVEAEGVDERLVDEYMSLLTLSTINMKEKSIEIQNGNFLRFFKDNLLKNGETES
Description: inhibition of PurR-DNA probe binding by PRPP (Supplementary Figure S15). Type of data set: biochemical.

The next data set has as its target T2, PurR Y102A/K207A (Bacillus subtilis, UniProt P37551, Y102A/K207A).
T2 sequence (P37551 1-285 Y102A/K207A): T1 sequence (P37551 1-285 Y102A/F205A)
The data set is described as above. In kind it is biochemical.

The target in data set [1] is T3, PurR (Bacillus subtilis, UniProt P37551).
T3 construct: untagged B. subtilis PurR
Put plainly: X-ray co-crystal structure ([…] Å); DRaCALA with […]-ppGpp. In kind it is binding.

The target in data set [2] is T3, PurR. Put plainly: DRaCALA with […]-pppGpp. Type of data set: binding.
Data set [3] concerns the molecule itself. Description: crystal structure; untagged PurR at 20 mg/ml with 1 mM ppGpp, hanging drop vapor diffusion, 0.1 M MES pH 6.5, 18% PEG 1500, room temperature; space group P1, three PurR dimers in the asymmetric unit; 2.45 Å.

By Kd is commonly meant a measure of binding affinity in units of concentration. High values mean a looser complex, low ones a tighter complex.

Turning to `O=P(O)(O)OC[C@H]1O[C@H](OP(=O)(O)OP(=O)(O)O)[C@H](O)[C@@H]1O` [PRPP], the “inhibition of PurR-DNA probe binding by PRPP (Supplementary Figure S15)” value at PurR Y102A/F205A was “yet still bind to DNA probes and their binding to DNA is still inhibited by PRPP”; at PurR Y102A/K207A, “yet still bind to DNA probes and their binding to DNA is still inhibited by PRPP”.
Regarding `Nc1nc2c(ncn2[C@@H]2O[C@H](COP(=O)(O)OP(=O)(O)O)[C@@H](OP(=O)(O)OP(=O)(O)O)[C@H]2O)c(=O)[nH]1` [ppGpp], the Kd at PurR [1] was ~4.4 µM.
As to `Nc1nc2c(ncn2[C@@H]2O[C@H](COP(=O)(O)OP(=O)(O)OP(=O)(O)O)[C@@H](OP(=O)(O)OP(=O)(O)O)[C@H]2O)c(=O)[nH]1` [pppGpp], the Kd at PurR [2] was ~4.4 µM.

B1: Bacillus subtilis purine synthesis transcription regulator PurR (untagged) (natural protein, B. subtilis)
chain: T1 sequence (P37551 1-285 Y102A/F205A)
notes: PurR, purine synthesis transcription regulator of Bacillus subtilis; Crystallised with 1 mM ppGpp; three dimers in the asymmetric unit; also called B. subtilis PurR; purine repressor PurR; source: E. coli BL21 T7 Express lacIq, purified (HisTrap FF, TEV cleavage, second HisTrap FF, Sephacryl S-200 gel filtration)
Take B1: the binding result in data set [3] is “binds”.
